Data set [1] concerns the target Xanthine dehydrogenase/oxidase (Bos taurus, UniProt P80457). Briefly: Inhibition of bovine milk xanthine oxidoreductase by spectrophotometry.
The next data set concerns the target T1, Xanthine dehydrogenase (Rhodobacter capsulatus, UniProt O54050).
T1 sequence (O54050 whole entry): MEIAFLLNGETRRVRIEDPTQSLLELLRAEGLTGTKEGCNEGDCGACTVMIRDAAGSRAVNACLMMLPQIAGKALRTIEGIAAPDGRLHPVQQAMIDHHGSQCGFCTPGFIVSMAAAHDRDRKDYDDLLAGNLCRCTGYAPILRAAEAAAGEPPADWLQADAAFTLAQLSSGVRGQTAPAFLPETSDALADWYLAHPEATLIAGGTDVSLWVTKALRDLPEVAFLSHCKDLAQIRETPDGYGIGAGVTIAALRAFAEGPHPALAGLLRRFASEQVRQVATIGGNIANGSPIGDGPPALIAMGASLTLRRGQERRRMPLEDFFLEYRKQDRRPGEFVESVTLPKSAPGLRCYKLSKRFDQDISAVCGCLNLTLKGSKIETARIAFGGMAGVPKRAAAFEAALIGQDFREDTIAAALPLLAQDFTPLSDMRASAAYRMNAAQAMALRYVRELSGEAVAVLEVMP
Briefly: Inhibition of Rhodobacter capsulatus xanthine dehydrogenase.

For data set [2], the target named is T2, Xanthine dehydrogenase/oxidase (Homo sapiens, UniProt P47989). Kind of data set: Inhibition of oxidized form of human xanthine oxidase.
T2 sequence (P47989 whole entry): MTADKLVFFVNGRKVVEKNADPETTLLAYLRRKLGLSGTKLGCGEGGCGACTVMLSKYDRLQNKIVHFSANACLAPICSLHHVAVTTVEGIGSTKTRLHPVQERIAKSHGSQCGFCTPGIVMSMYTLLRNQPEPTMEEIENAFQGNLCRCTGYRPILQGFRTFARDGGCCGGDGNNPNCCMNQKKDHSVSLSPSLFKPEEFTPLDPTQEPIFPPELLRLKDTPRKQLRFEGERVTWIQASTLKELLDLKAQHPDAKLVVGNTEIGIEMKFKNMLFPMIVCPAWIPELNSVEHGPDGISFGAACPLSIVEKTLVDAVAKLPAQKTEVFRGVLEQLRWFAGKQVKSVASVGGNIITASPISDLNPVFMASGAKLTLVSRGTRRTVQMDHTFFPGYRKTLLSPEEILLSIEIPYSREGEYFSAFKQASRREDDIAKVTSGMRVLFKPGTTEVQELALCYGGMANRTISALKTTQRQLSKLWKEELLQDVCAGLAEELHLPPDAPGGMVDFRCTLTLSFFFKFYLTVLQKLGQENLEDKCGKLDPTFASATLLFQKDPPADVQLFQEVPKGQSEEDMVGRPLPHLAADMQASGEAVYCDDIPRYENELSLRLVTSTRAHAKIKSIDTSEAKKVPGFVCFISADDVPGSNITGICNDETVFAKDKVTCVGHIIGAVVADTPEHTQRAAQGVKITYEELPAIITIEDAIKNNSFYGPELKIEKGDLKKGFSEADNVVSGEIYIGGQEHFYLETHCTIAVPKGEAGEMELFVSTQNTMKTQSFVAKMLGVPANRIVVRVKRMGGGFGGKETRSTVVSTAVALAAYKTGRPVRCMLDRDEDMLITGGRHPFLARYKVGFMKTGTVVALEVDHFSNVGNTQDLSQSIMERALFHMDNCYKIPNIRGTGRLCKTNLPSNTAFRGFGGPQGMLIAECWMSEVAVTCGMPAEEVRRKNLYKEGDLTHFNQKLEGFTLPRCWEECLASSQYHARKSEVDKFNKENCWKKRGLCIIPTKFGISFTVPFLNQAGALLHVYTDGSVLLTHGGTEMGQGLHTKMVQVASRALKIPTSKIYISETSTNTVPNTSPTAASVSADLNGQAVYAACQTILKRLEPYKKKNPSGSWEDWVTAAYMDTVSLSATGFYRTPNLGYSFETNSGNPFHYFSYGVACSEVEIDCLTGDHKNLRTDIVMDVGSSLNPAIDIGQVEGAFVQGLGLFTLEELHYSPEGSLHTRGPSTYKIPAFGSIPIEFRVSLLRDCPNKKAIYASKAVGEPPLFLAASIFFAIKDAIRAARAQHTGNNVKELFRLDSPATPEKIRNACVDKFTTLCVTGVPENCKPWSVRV
Data set [3] has as its target T2, Xanthine dehydrogenase/oxidase. Kind of data set: Inhibition of human xanthine oxidase.

Chain of Xanthine dehydrogenase/oxidase (Bos taurus, UniProt P80457) (P80457 whole entry): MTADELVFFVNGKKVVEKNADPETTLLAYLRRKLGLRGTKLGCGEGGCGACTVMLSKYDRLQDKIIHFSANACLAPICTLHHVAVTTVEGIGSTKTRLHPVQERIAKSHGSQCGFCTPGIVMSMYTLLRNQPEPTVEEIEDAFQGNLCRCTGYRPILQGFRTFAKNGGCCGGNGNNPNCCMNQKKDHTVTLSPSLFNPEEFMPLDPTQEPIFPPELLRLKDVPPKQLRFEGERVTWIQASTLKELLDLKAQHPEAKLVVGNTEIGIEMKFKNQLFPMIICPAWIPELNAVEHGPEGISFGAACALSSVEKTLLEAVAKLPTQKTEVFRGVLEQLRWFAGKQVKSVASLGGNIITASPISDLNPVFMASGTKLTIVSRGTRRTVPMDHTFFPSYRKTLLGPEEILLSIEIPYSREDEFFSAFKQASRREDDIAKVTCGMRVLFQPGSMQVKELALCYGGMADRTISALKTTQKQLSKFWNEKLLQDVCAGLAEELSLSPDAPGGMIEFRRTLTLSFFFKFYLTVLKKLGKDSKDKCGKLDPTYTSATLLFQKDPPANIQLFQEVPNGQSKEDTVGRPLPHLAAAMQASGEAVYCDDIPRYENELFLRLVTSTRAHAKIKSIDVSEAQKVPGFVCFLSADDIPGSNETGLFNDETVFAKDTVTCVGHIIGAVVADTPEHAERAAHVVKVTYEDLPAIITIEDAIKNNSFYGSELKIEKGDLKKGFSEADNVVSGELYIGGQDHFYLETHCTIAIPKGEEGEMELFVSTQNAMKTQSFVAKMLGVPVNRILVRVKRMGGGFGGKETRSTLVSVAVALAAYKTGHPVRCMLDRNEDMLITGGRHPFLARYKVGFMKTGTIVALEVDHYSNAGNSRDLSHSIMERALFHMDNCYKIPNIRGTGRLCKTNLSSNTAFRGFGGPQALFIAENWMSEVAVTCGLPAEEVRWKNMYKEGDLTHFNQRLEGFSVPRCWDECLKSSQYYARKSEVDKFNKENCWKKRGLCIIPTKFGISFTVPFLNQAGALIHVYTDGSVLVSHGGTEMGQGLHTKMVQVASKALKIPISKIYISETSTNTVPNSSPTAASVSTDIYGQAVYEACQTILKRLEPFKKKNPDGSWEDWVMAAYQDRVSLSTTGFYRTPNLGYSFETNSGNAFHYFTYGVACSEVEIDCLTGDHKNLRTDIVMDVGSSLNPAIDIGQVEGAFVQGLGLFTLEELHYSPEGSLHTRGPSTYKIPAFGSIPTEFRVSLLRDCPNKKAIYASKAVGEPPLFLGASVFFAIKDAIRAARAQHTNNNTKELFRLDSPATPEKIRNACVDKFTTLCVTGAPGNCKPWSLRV

On to `Nc1nc2ncc(C=O)nc2c(=O)[nH]1`, for which the Ki amounted to 0.00178 µM in data set [1] and 0.104 µM on Xanthine dehydrogenase.
For the molecule `O=c1[nH]c(=O)c2c[nH]nc2[nH]1` [OXYPURINOL], the results for the Ki in data set [2] and in data set [3] were 1 µM and 0.035 µM, respectively.
Regarding `O=c1c(O)c(-c2ccc(O)c(O)c2)oc2cc(O)cc(O)c12` [QUERCETIN], in data set [1] (cattle), the “inhibition (INH)” value is “Active”.

(Values after ChEMBL document CHEMBL3352774 (J Nat Prod, 2014).)
